Assay results as given in ChEMBL document CHEMBL4190322, “Structure-based development of novel triazoles and related thiazolotriazoles as anticancer agents and Cdc25A/B phosphatase inhibitors. Synthesis, in vitro biological evaluation, molecular docking and in silico ADME-T studies” (Eur J Med Chem, 2017).
The source made the active and inactive calls. The calls are words filed in the database; no cut-off is given here.

Columns and labels:
SNB-19 = assay: Growth inhibition of human SNB19 cells at 10 uM after 48 hrs by SRB assay relative to control; format: functional
CCRF-CEM = assay: Growth inhibition of human CCRF-CEM cells at 10 uM after 48 hrs by SRB assay relative to control; format: functional; conditions: read-out: GI
OVCAR-4 = assay: Growth inhibition of human OVCAR4 cells at 10 uM after 48 hrs by SRB assay relative to control; format: functional; conditions: OVCAR-4, 48 h, read-out: GI
HT-29 = assay: Growth inhibition of human HT-29 cells at 10 uM after 48 hrs by SRB assay relative to control; format: functional; conditions: HT-29, 48 h, read-out: GI
NCI/ADR-RES = assay: Growth inhibition of human NCI/ADR-RES cells at 10 uM after 48 hrs by SRB assay relative to control; format: functional; conditions: read-out: GI
HCT-116 = assay: Growth inhibition of human HCT116 cells at 10 uM after 48 hrs by SRB assay relative to control; format: functional
HL-60 = assay: Growth inhibition of human HL60 cells at 10 uM after 48 hrs by SRB assay relative to control; format: functional
MCF7 = assay: Growth inhibition of human MCF7 cells at 10 uM after 48 hrs by SRB assay relative to control; format: functional; conditions: MCF7, 48 h, read-out: GI
NCI-H522 = assay: Growth inhibition of human NCI-H522 cells at 10 uM after 48 hrs by SRB assay relative to control; format: functional; conditions: NCI-H522, 48 h, read-out: GI
SNB-75 = assay: Growth inhibition of human SNB75 cells at 10 uM after 48 hrs by SRB assay relative to control; format: functional; conditions: SNB-75, 48 h, read-out: GI
K562 = assay: Growth inhibition of human K562 cells at 10 uM after 48 hrs by SRB assay relative to control; format: functional; conditions: K562, 48 h, read-out: GI
UACC-257 = assay: Growth inhibition of human UACC257 cells at 10 uM after 48 hrs by SRB assay relative to control; format: functional
SK-MEL-5 = assay: Growth inhibition of human SK-MEL-5 cells at 10 uM after 48 hrs by SRB assay relative to control; format: functional; conditions: SK-MEL-5, 48 h, read-out: GI
786-0 = assay: Growth inhibition of human 786-0 cells at 10 uM after 48 hrs by SRB assay relative to control; format: functional
SF-268 = assay: Growth inhibition of human SF268 cells at 10 uM after 48 hrs by SRB assay relative to control; format: functional; conditions: SF-268, 48 h, read-out: GI
SK-MEL-2 = assay: Growth inhibition of human SK-MEL-2 cells at 10 uM after 48 hrs by SRB assay relative to control; format: functional; conditions: SK-MEL-2, 48 h, read-out: GI
[1] = target: T1, M-phase inducer phosphatase 2 (Homo sapiens, UniProt P30305); assay: Inhibition of human CDC25B using OMFP as substrate after 15 mins by fluorescence assay
T1 sequence (P30305 whole entry): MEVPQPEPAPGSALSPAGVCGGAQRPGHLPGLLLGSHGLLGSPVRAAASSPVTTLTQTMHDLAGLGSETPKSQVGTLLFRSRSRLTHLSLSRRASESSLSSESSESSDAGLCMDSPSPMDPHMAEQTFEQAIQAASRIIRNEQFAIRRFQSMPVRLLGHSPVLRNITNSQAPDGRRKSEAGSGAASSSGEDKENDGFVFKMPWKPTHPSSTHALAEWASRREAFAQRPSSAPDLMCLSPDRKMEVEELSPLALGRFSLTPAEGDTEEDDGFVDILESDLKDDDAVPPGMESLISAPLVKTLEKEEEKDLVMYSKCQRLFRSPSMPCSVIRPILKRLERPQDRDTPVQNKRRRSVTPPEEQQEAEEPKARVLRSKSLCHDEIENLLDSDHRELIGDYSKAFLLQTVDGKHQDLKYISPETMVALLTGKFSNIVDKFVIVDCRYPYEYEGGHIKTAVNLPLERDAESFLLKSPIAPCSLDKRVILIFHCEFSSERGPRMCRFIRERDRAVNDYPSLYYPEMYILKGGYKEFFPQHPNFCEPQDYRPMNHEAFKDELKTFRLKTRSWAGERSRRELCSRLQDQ

A498 = assay: Growth inhibition of human A498 cells at 10 uM after 48 hrs by SRB assay relative to control; format: functional; conditions: A498, 48 h, read-out: GI
A549 = assay: Growth inhibition of human A549 cells at 10 uM after 48 hrs by SRB assay relative to control; format: functional
Hs-578T = assay: Growth inhibition of human Hs 578T cells at 10 uM after 48 hrs by SRB assay relative to control; format: functional
SK-OV-3 = assay: Growth inhibition of human SKOV3 cells at 10 uM after 48 hrs by SRB assay relative to control; format: functional; conditions: SK-OV-3, 48 h, read-out: GI
MOLT-4 = assay: Growth inhibition of human MOLT4 cells at 10 uM after 48 hrs by SRB assay relative to control; format: functional; conditions: MOLT-4, 48 h, read-out: GI
HOP-62 = assay: Growth inhibition of human HOP62 cells at 10 uM after 48 hrs by SRB assay relative to control; format: functional; conditions: HOP-62, 48 h, read-out: GI
HOP-92 = assay: Growth inhibition of human HOP92 cells at 10 uM after 48 hrs by SRB assay relative to control; format: functional; conditions: HOP-92, 48 h, read-out: GI
SR = assay: Growth inhibition of human SR cells at 10 uM after 48 hrs by SRB assay relative to control; format: functional; conditions: read-out: GI
RXF 393 = assay: Growth inhibition of human RXF393 cells at 10 uM after 48 hrs by SRB assay relative to control; format: functional
Malme-3M = assay: Growth inhibition of human MALME-3M cells at 10 uM after 48 hrs by SRB assay relative to control; format: functional; conditions: read-out: GI
OVCAR-8 = assay: Growth inhibition of human OVCAR8 cells at 10 uM after 48 hrs by SRB assay relative to control; format: functional
NCI-H322M = assay: Growth inhibition of human NCI-H322M cells at 10 uM after 48 hrs by SRB assay relative to control; format: functional; conditions: read-out: GI
KM12 = assay: Growth inhibition of human KM12 cells at 10 uM after 48 hrs by SRB assay relative to control; format: functional; conditions: KM12, 48 h, read-out: GI
U-251 = assay: Growth inhibition of human U251 cells at 10 uM after 48 hrs by SRB assay relative to control; format: functional; conditions: U-251, 48 h, read-out: GI
UACC-62 = assay: Growth inhibition of human UACC62 cells at 10 uM after 48 hrs by SRB assay relative to control; format: functional; conditions: UACC-62, 48 h, read-out: GI

Row | Compound | inhibition of growth at 10 µM (CCRF-CEM) [%] | inhibition of growth at 10 µM (OVCAR-4) [%] | inhibition of growth at 10 µM (HT-29) [%] | inhibition of growth at 10 µM (NCI/ADR-RES) [%] | inhibition of growth at 10 µM (MCF7) [%] | inhibition of growth at 10 µM (NCI-H522) [%] | inhibition of growth at 10 µM (SNB-75) [%] | inhibition of growth at 10 µM (K562) [%] | growth inhibition (GI) (UACC-257) | inhibition of growth at 10 µM (SK-MEL-5) [%] | growth inhibition (GI) (786-0) | inhibition of growth at 10 µM (SF-268) [%] | inhibition of growth at 10 µM (SK-MEL-2) [%] | IC50 [1] [µM] | inhibition of growth at 10 µM (A498) [%] | growth inhibition (GI) (Hs-578T) | inhibition of growth at 10 µM (SK-OV-3) [%] | inhibition of growth at 10 µM (MOLT-4) [%] | inhibition of growth at 10 µM (HOP-62) [%] | inhibition of growth at 10 µM (HOP-92) [%] | other results
1 | COc1ccc(Cc2nnc(SCC(=O)Nc3ccc(Cl)cc3)n2-c2ccccc2)cc1 | 21.4 | 1.8 | 2.73 | 11.4 | 4.1 | 22.3 | 8.27 | 25 | inactive | 3.39 | inactive | 12.6 | 3.18 | 22.5 | 15.5 | inactive | 14.1 | 42.3 | 8.3 | 30 | inhibition of growth at 10 µM (SNB-19; SNB-19, 48 h, read-out: GI): 3%; inhibition of growth at 10 µM (HCT-116; HCT-116, 48 h, read-out: GI): 2%; growth inhibition (GI) (HL-60): inactive; growth inhibition (GI) (A549): inactive; inhibition of growth at 10 µM (SR): 31.2%; inhibition of growth at 10 µM (RXF 393; RXF 393, 48 h, read-out: GI): 3.85%; inhibition of growth at 10 µM (Malme-3M): 11.7%; growth inhibition (GI) (OVCAR-8): inactive; inhibition of growth at 10 µM (NCI-H322M): 8.75%; inhibition of growth at 10 µM (KM12): 14.5%; inhibition of growth at 10 µM (U-251): 4.12%; inhibition of growth at 10 µM (UACC-62): 18.8%
2 | COc1ccc(Cc2nnc(SCC(=O)c3ccc(Cl)cc3)n2-c2ccc(C)cc2)cc1 | 23 | 18.6 | 4.07 | 12 | 8.76 | 23 | 11.4 | 53.5 | inactive | 1.52 | inactive | 1.22 | 10 | 17.3 | 46 | inactive | 1.07 | 32.7 | 11.7 | 36.9 | growth inhibition (GI) (SNB-19): inactive; growth inhibition (GI) (HCT-116): inactive; inhibition of growth at 10 µM (HL-60; HL-60, 48 h, read-out: GI): 26.4%; inhibition of growth at 10 µM (A549; A549, 48 h, read-out: GI): 4.54%; inhibition of growth at 10 µM (SR): 20%; growth inhibition (GI) (RXF 393): inactive; inhibition of growth at 10 µM (Malme-3M): 12%; inhibition of growth at 10 µM (OVCAR-8; OVCAR-8, 48 h, read-out: GI): 1.7%; inhibition of growth at 10 µM (NCI-H322M): 4%; inhibition of growth at 10 µM (KM12): 7.12%; inhibition of growth at 10 µM (U-251): 10.4%; inhibition of growth at 10 µM (UACC-62): 5.42%
